According to patent publication US20110045101A1, “FUNGICIDAL SUBSTITUTED AZOLES” (E.I. Du Pont De Nemours and Company, priority 2009, published 2011):
Marks after values point to notes of the source that are not given here.

Key:
Assay type in all cases: in vivo
Conditions in all cases: 100 = 100% disease control
[1] = test system: Alternaria solani; experiment: Test D: tomato early blight, sprayed the day before inoculation, visual disease rating
Summary of the method: (§1)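 Test rate was 200 ppm, sprayed to run-off and equal to 500 g/ha, or 40 ppm where marked. The compound was first taken up in acetone at 3% of final volume and suspended in acetone/purified water (50/50) containing 250 ppm Trem® 014.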

[2] = test system: Puccinia recondita f. sp. tritici; experiment: Test H: wheat leaf rust, test suspension sprayed after inoculation of wheat seedlings, visual disease rating
Summary of the method: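 Wheat seedlings inoculated with P. recondita spores, held 24 h saturated at 20 °C, then 2 days in growth chamber at 20 °C; compound suspension (acetone/water with Trem 014) sprayed to run-off afterwards. Rated visually; 200 ppm (≈500 g/ha) unless marked *, which denotes 40 ppm.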

[3] = test system: Septoria tritici; experiment: Test G: wheat leaf blotch on wheat seedlings, sprayed the day before inoculation, visual disease rating
Summary of the method: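 Seedlings receive a protective spray of test suspension in acetone/water carrying 250 ppm surfactant, mostly at 200 ppm and at 40 ppm where marked. They are inoculated the next day, kept saturated at 24° C for 48 h, then held at 20° C for 19 days before visual scoring.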

[4] = test system: Puccinia recondita f. sp. tritici; experiment: Test I: wheat leaf rust on wheat seedlings, sprayed the day before inoculation, visual disease rating
Summary of the method: as §1

[5] = test system: Erysiphe graminis f. sp. tritici; experiment: Test J: wheat powdery mildew on wheat seedlings, sprayed the day before inoculation, visual disease rating
Summary of the method: as §1

[6] = test system: Septoria nodorum; experiment: Test F: wheat glume blotch on wheat seedlings, sprayed the day before inoculation, visual disease rating
Summary of the method: as §1

[7] = test system: Botrytis cinerea; experiment: Test C: tomato Botrytis on tomato seedlings, sprayed the day before inoculation, visual disease rating
Summary of the method: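 Each compound is first taken up in acetone at 3% of the final volume and then brought to the desired ppm in a 50:50 acetone–water mix with 250 ppm surfactant (polyhydric alcohol esters). Tomato seedlings receive the suspension to run-off, normally at 200 ppm, occasionally 40 ppm.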

[8] = 200 ppm, 0 = no control relative to controls
[9] = 40 ppm (marked *), 0 = no control

Row | Compound | Test D disease control rating [1, 8] [%] | Test H disease control rating [2, 8] [%] | Test G disease control rating [3, 8] [%] | Test I disease control rating [4, 8] [%] | Test J disease control rating [5, 8] [%] | Test F disease control rating [6, 8] [%] | Test C disease control rating [7, 8] [%] | Test D disease control rating [1, 9] | Test H disease control rating [2, 9] | Test G disease control rating [3, 9] | Test I disease control rating [4, 9] | Test J disease control rating [5, 9] | Test F disease control rating [6, 9] | Test C disease control rating [7, 9]
1 | Fc1cccc(-n2c(Cl)nc(Cl)c2-c2c(F)ccc(F)c2F)c1 [compound 366] | 100 | 41 | 91 | 99 | 97 | 64 | 100 |  |  |  |  |  |  | 
2 | Fc1cccc(-n2c(Br)nc(Cl)c2-c2c(F)cc(F)cc2F)c1 [compound 367] | 100 | 9 | 90 | 98 | 97 | 89 | 99 |  |  |  |  |  |  | 
3 | Fc1cccc(-n2c(Br)nc(Cl)c2-c2c(F)ccc(F)c2F)c1 [compound 368] | 100 | 0 | 92 | 99 | 96 | 0 | 99 |  |  |  |  |  |  | 
4 | Cc1nc(Cl)c(-c2c(F)ccc(F)c2F)n1-c1cccc(F)c1 [compound 369] | 100 | 74 | 92 | 99 | 99 | 98 | 99 |  |  |  |  |  |  | 
5 | Cc1nc(Cl)c(-c2c(F)cc(F)cc2F)n1-c1cccc(F)c1 [compound 370] | 100 | 100 | 89 | 100 | 100 | 87 | 99 |  |  |  |  |  |  | 
6 | Cn1c(-c2c(Br)nc(Br)n2-c2ccc(Cl)cc2)nc(Br)c1Br [compound 372] | 0 | 0 | 91 | 74 | 0 | 0 | 99 |  |  |  |  |  |  | 
7 | COc1cc(F)c(-n2c(Br)nc(Cl)c2-c2ccc(Cl)cc2)c(F)c1 [compound 373] |  |  |  |  |  |  |  | 98* % | 0* % | 92* % | 95* % | 99* % | 60* % | 99* %
8 | Fc1ccc(F)c(-c2c(Br)nc(Br)n2-c2ccc(Cl)cc2)c1Cl [compound 374] | 99 | 0 | 94 | 90 | 98 | 0 | 99 |  |  |  |  |  |  | 
9 | Cc1cccc(-c2c(C)ncn2-c2ccc(Cl)c(F)c2)n1 [compound 375] | 26 | 32 | 92 | 68 | 62 | 0 | 99 |  |  |  |  |  |  | 
10 | Cc1ncn(-c2ccc(Cl)c(F)c2)c1-c1scnc1Cl [compound 376] | 0 | 0 | 78 | 54 | 67 | 0 | 90 |  |  |  |  |  |  | 
11 | Cc1ncn(-c2ccc(Cl)c(F)c2)c1-c1sc(Cl)nc1Cl [compound 377] | 0 | 0 | 3 | 27 | 33 | 0 | 0 |  |  |  |  |  |  | 
12 | Cc1cccc(-c2c(C)nc(Cl)n2-c2ccc(Cl)c(F)c2)n1 [compound 378] | 0 | 0 | 93 | 74 | 75 | 0 | 100 |  |  |  |  |  |  | 
13 | Cc1cccc(-c2c(CCl)nc(Cl)n2-c2ccc(Cl)c(F)c2)n1 [compound 379] | 0 | 0 | 86 | 27 | 0 | 0 | 99 |  |  |  |  |  |  | 
14 | Cc1nc(Cl)n(-c2ccc(Cl)c(F)c2)c1-c1scnc1Cl [compound 380] | 91 | 0 | 91 | 99 | 99 | 0 | 100 |  |  |  |  |  |  | 
15 | Cc1nc(Cl)n(-c2ccc(Cl)c(F)c2)c1-c1sc(Cl)nc1Cl [compound 381] | 0 | 0 | 78 | 0 | 0 | 0 | 94 |  |  |  |  |  |  | 
16 | Fc1cc(-n2c(Br)nc(Br)c2-c2c(F)ccc(F)c2F)ccc1Cl [compound 382] |  |  |  |  |  |  |  | 99* % | 0* % | 96* % | 95* % | 97* % | 0* % | 100* %
17 | Fc1ccc(F)c(-c2c(Br)nc(Br)n2-c2ccc(Cl)cc2)c1F [compound 383] |  |  |  |  |  |  |  | 99* % | 0* % | 96* % | 91* % | 98* % | 35* % | 100* %
18 | Fc1ccc(-n2c(Br)nc(Br)c2-c2c(F)ccc(F)c2F)cc1 [compound 384] |  |  |  |  |  |  |  | 99* % | 0* % | 95* % | 67* % | 95* % | 0* % | 100* %
19 | Fc1ccc(F)c(-c2c(Br)nc(Cl)n2-c2ccc(Cl)cc2)c1Cl [compound 385] |  |  |  |  |  |  |  | 99* % | 0* % | 95* % | 95* % | 99* % | 0* % | 99* %
20 | N#Cc1ccc(-n2cnc(Cl)c2-c2c(F)ccc(C#N)c2F)cc1 [compound 387] | 0 | 0 | 0 | 0 | 0 | 0 | 0 |  |  |  |  |  |  | 
